Where two headings read alike, the source gives them in different places.

Assay [1] relates to KRAS mutant (G12V) Capan-2 pancreatic cancer xenograft. Type of assay: in vivo. As to conditions: for Delta T/C % or % Regression: Day 34, Compound A 50 mg/kg QD PO, gemcitabine 100 mg/kg once weekly IP; for Difference (Treatment 1 − Treatment 2), tumor growth: Treatment 1 = Vehicle QD x 28 PO, log10 tumor volume, Compound A 50 mpk QD x 28 PO, Gemcitabine 100 mpk Q7D x 4 IP; for inhibition of tumor growth: single agents vs vehicle control group, combination vs each single agent alone. On the procedure:
Human pancreatic cancer cell line Capan-2 (ATCC cat # HTB-80) are cultured in DMEM supplemented with 10% fetal bovine serum, sodium pyruvate, nonessential amino acids, L-glutamine, and penicillin-streptomycin (Invitrogen, Carlsbad, Calif.). All cultures are maintained in a humidified incubator at 37° C. under 5% CO2/95% air free off mycoplasma and pathogenic murine viruses. The cells are used for experiments at passages <7 after recovery from frozen stocks.
Female CB-17 SCID nude mice are ordered from Charles River Laboratories International, Inc. All animals are acclimated for one week before the use and are housed and maintained in specific pathogen-free conditions in accordance with the guidelines of the American Association for Laboratory Animal Care and all current regulations and standards of the U.S. Departments of Agriculture and of Health and Human Services and the NIH. The experiment protocol is approved by the Eli Lilly and Company Animal Care and Use Committee.
Logarithmically growing Capan-2 cells (5×10^6/200 μL, single-cell suspensions of over 95% viability in Hank's medium mixed with equal volume of Matrigel (Becton Dickinson & Co., San Jose, Calif.)) are subcutaneously injected into the flank of the mice. When the average tumor volume reaches about 200 to 300 mm^3 following tumor cell implantation, the animals are randomized into different groups (n=5). The animals are treated with vehicle control (1% HEC/0.25% TWEEN® 80/0.05% Antifoam, daily, orally), Compound A (50 mg/kg, QD, PO), gemcitabine (100 mg/kg, once weekly, intraperitoneal), and the combination for 4 weeks. Compound A was formulated in 1% HEC/0.25% TWEEN® 80/0.05% Anti foam and gemcitabine is formulated in phosphate buffered saline (lx). Tumor volume and body weight are measured twice weekly. Tumor volume is estimated by using the formula: v=l×w2×0.536 where l=larger of measured diameter and w=smaller of perpendicular diameter.
The statistical analysis of the tumor volume data begins with a data transformation to a log scale to equalize variance across time and treatment groups. The log volume data are analyzed with a two-way repeated measures analysis of variance by time and treatment using the MIXED procedures in SAS software (Version 9.3). The correlation model for the repeated measures is Spatial Power. Treated groups are compared to the control group at each time point. The MIXED procedure is also used separately for each treatment group to calculate adjusted means and standard errors at each time point. Both analyses account for the autocorrelation within each animal and the loss of data that occurs when animals with large tumors are removed from the study early. The adjusted means and standard errors (s.e.) are plotted for each treatment group versus time. Analysis for tumor volume is based on log10 and spatial power covariance structure. P value is based on the comparison between two specific groups.
First, the usual repeated measures model is fit to log volume versus group and time. Then contrast statements are used to test for an interaction effect at each time point using the 2 specific treatments that are combined. This is equivalent to the Bliss Independence method and assumes that tumor volumes can, in theory, reach zero, i.e., complete regression. The expected additive response (EAR) for the combination is calculated on the tumor volume scale as: response (EAR) EAR volume=V1*V2/V0, where V0, V1, and V2 are the estimated mean tumor volumes for the vehicle control, treatment 1 alone, and treatment 2 alone, respectively. If the interaction test is significant, the combination effect is declared statistically more than additive or less than additive depending on the observed combination mean volume being less than or more than the EAR volume, respectively. Otherwise, the statistical conclusion is additive. In addition, a biologically relevant range of additivity can be defined as X % above and below the EAR volume. Typically, X would be 25 to 40%. […]

For assay [2], the system named is ERK substrate (RSK) phosphorylation in HCT116 colorectal cancer cell line. In words: ERK1/2 Cell Mechanistic Assay (pRSK1 Alphascreen Assay). Type of assay: cell-based. As to conditions: Homo sapiens, HCT-116, HCT116 cells, 2 h, n=8, read-out: IC50, ERK substrate (RSK) phosphorylation in tumor cells. How it is done:
The purpose of this assay is to measure the ability of a compound to inhibit ERK signaling in cancer cells in vitro. Carry out the pRSK1 Alphascreen assay using the HCT116 colorectal cancer cell line (ATCC, # CCL-247). Routinely culture HCT116 cells in Dulbecco's Modified Eagle's Medium (DMEM) (Hyclone, # SH30022) growth medium containing 5%0/Fetal Bovine Serum (FBS) (Gibco, #16000-044) in T-150 flasks and incubate in a 5% CO2 incubator at 37° C. Harvest cells when they become confluent and freeze in freezing medium at 1×10e^7 cells/mL as “assay ready frozen cells” and store in liquid nitrogen. To run the assay, plate 40,000 HCT116 cells/well in a 96-well tissue culture plate and incubate at 37° C. in a 5% CO2 incubator overnight. Test compounds at 10 concentrations starting at a 20 μM top concentration and utilize a 1:3 dilution scheme (20 μM to 0.001 μM) with a final DMSO concentration of 0.5% (v/v). Add compounds in 20 μL serum free growth medium and incubate at 37° C. for two hours. Remove growth medium and add 50 μL of 1× lysis buffer [Cell Signaling Technology, #9803] containing 1× holt protease and […] inhibitor cocktail [Thermo, #78441] to each well and incubate at room temperature for 10 minutes on a shaker. […] Measure the fluorescence intensity in each well by reading the plates in ENVISION® (PerkinElmer) plate reader. […]
For orientation: In Alpha technology, singlet oxygen from a donor bead excites a nearby acceptor bead.

For assay [3], the system named is human pancreatic cancer cells MIA PaCa2 xenograft. Put plainly: Xenograft Tumor Model (MIA PaCa2). Type of assay: in vivo, female athymic nude mice. As to conditions: for Delta T/C % or Regression %: oral gavage, 14 days. On the procedure:
The purpose of this assay is to measure reduction in tumor volume in response to test compound administration. Expand human pancreatic cancer cells MIA PaCa2 (ATCC, # CRL1420) in culture, harvest and inject 5×10e^6 cells in 200 μL of 1:1 HBSS+matrigel solution subcutaneously on the rear right flank of female athymic nude mice (22-25 g, Harlan Laboratories). Measure tumor growth and body weight twice per week beginning the seventh day after the implantation. When tumor sizes reach 200-400 mm^3, randomize animals and group into groups of eight to ten animals. Prepare test compound in an appropriate vehicle (vehicle: […]/0.25% TWEEN® 80/0.05% Antifoam) and administer by oral gavage daily for 14 days. Tumor response is determined by tumor volume measurement performed twice a week during the course of treatment. Body weight is taken as a general measure of toxicity.
Regression % is calculated when the endpoint volume is below baseline. The formula is 100*(T−T0)/T0. Where T0 is the mean baseline tumor volume for the treated group. Grand mean of all groups from baseline (randomization) at day 20 used to compute % change of T/C.

As for `Nc1ccn([C@@H]2O[C@H](CO)[C@@H](O)C2(F)F)c(=O)n1` [Gemcitabine, gemcitabine], in assay [1], the “Delta T/C % or % Regression” value was determined as 24%; the “Difference (Treatment 1 − Treatment 2), tumor growth” value turned out to be 0.633; the “inhibition of tumor growth” value is “partial inhibition of tumor growth”. In assay [1] (listed as gemcitabine), the “Delta T/C % or % Regression” value stood at 20%.
Take `Cn1nccc1Nc1nccc(-c2cc3c(s2)C(C)(C)N(CCN2CCOCC2)C3=O)n1` [Compound A, 6,6-Dimethyl-2-{2-[(1-methyl-1H-pyrazol-5-yl)amino]pyrimidin-4-yl}-5-[2-(morpholin-4-yl)ethyl]-5,6-dihydro-4H-thieno[2,3-c]pyrrol-4-one]: in assay [2], the IC50 is 429 nM. Besides, the “Delta T/C % or Regression %” value in assay [3] (MIA PaCa2 xenograft, 25 mg/kg QD) is 2%; in assay [3] (MIA PaCa2 xenograft, 50 mg/kg QD) it was −22%; in assay [3] (MIA PaCa2 xenograft, 100 mg/kg QD) it was −66%; in assay [3] (MIA PaCa-2 xenograft, 12.5 mg/kg QD), 32%. Moreover, in assay [3] (human pancreatic cancer xenograft model (MIA PaCa2)), the “anti-tumor activity” value was “significant anti-tumor activity”. In assay [1], the “Delta T/C % or % Regression” value came out at 40%. The “Difference (Treatment 1 − Treatment 2), tumor growth” value in assay [1] was 0.397. Besides, the “inhibition of tumor growth” value in assay [1] is “partial inhibition of tumor growth”.

By IC50 is commonly meant the concentration at which inhibition is half-maximal.

The values are drawn from patent US20200306254A1, “COMBINATION OF ERK1/2 INHIBITOR COMPOUND WITH GEMCITABINE OR WITH GEMCITABINE AND NAB-PACLITAXEL FOR USE IN TREATMENT OF PANCREATIC CANCER” (Eli Lilly and Company, priority 2016, published 2020).
